Read-outs that look alike come from different tables or passages of the source.

In one test the target is CDK10 (Homo sapiens, UniProt Q15131). Nature of the test: KiNativ, MOLM13 live cells. The test is classed as cell-based. Particulars: MOLM-13; 100 nM, 2 hours; Lys2; read-out: Inhibition vs DMSO. On the procedure:
(§1) Samples were analyzed by KiNativ in situ kinase profiling by ActivX Biosciences.

For the next test, the target named is GSK3B (Homo sapiens, UniProt P49841). Nature of the test: KiNativ, MOLM13 live cells. The test is classed as cell-based. Particulars: MOLM-13; 100 nM, 2 hours; Lys2; read-out: Inhibition vs DMSO. On the procedure: as §1
The target in a further test is TBK1 (Homo sapiens, UniProt Q9UHD2). The test is described as follows: KiNativ, MOLM13 live cells. The test is classed as cell-based. The settings on record: MOLM-13; 100 nM, 2 hours; Lys1; read-out: Inhibition vs DMSO. Here is the method: as §1
Chain of TBK1 (Q9UHD2 whole entry): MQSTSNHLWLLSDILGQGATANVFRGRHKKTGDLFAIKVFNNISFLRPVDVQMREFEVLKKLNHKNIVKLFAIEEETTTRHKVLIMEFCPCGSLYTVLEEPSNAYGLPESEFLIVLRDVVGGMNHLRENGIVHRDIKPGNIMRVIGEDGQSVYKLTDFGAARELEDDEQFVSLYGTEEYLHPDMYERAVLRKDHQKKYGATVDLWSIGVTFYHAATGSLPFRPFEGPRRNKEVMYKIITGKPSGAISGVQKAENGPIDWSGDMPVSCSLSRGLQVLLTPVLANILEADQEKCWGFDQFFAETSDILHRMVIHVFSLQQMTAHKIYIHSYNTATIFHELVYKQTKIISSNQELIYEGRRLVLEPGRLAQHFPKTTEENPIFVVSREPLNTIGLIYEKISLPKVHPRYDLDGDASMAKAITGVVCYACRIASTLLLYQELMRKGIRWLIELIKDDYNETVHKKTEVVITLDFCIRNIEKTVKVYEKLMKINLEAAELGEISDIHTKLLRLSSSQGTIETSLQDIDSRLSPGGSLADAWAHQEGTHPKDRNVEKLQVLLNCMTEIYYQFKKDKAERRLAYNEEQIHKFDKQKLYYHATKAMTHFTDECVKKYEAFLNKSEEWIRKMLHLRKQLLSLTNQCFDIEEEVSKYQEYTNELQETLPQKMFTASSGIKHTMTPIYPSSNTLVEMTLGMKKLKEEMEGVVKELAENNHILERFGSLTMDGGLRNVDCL
Another test has as its target T1, ILK (Homo sapiens, UniProt Q13418).
T1 sequence (Q13418 1-452): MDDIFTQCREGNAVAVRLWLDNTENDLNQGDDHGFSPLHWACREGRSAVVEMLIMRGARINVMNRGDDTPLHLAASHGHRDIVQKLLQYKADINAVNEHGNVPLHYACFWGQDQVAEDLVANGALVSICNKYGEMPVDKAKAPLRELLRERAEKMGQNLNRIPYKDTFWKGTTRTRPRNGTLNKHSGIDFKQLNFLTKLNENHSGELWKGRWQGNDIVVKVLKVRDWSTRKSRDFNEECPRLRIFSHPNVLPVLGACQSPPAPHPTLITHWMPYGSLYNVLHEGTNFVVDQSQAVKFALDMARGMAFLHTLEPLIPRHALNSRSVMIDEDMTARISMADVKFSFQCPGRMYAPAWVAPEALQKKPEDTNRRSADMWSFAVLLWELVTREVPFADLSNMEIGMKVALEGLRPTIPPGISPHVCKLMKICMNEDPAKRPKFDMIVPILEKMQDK
The test is described as follows: KiNativ, MOLM13 live cells. It is filed as cell-based. Particulars: MOLM-13, 2 h, 100 nM. On the procedure: as §1

Another test addresses T2, AurA (Homo sapiens, UniProt O14965).
T2 sequence (O14965 1-403): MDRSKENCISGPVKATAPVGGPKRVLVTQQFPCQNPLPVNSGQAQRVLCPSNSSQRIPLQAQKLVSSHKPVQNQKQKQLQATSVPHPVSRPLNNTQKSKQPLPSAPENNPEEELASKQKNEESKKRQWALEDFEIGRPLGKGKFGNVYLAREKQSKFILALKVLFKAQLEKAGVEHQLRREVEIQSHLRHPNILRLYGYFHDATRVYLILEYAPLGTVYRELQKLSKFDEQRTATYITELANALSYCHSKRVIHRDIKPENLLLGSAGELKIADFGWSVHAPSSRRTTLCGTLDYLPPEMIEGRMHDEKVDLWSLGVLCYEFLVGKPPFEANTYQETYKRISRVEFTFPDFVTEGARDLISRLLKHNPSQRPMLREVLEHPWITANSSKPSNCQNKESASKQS
The test is described as follows: KiNativ, MOLM13 live cells. It is filed as cell-based. Particulars: MOLM-13, 2 h, 100 nM. Here is the method: as §1

In the next test the target is MAP2K5 (Homo sapiens, UniProt Q13163). The test is described as follows: KiNativ, MOLM13 live cells. Particulars: MOLM-13; 100 nM, 2 hours; Lys2; read-out: Inhibition vs DMSO. The test is classed as cell-based. On the procedure: as §1
Chain of MAP2K5 (Q13163 whole entry): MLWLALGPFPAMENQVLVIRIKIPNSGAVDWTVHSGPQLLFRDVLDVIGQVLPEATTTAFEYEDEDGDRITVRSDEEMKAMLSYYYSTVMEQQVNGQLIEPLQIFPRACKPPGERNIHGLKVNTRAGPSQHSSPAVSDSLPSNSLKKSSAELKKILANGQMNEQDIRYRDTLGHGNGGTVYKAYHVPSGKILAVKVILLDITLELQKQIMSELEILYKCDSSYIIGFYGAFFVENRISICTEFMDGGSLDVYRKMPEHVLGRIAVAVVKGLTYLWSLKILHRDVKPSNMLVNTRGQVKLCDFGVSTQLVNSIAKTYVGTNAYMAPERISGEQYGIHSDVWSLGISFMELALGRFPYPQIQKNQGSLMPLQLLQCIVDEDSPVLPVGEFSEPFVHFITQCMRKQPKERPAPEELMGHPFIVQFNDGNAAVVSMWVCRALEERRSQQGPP
The next test deals with IKKa (Homo sapiens, UniProt O15111). The test is described as follows: KiNativ, MOLM13 live cells. The test is classed as cell-based. Particulars: MOLM-13; 100 nM, 2 hours; Lys2; read-out: Inhibition vs DMSO. Here is the method: as §1
Chain of IKKa (O15111 whole entry): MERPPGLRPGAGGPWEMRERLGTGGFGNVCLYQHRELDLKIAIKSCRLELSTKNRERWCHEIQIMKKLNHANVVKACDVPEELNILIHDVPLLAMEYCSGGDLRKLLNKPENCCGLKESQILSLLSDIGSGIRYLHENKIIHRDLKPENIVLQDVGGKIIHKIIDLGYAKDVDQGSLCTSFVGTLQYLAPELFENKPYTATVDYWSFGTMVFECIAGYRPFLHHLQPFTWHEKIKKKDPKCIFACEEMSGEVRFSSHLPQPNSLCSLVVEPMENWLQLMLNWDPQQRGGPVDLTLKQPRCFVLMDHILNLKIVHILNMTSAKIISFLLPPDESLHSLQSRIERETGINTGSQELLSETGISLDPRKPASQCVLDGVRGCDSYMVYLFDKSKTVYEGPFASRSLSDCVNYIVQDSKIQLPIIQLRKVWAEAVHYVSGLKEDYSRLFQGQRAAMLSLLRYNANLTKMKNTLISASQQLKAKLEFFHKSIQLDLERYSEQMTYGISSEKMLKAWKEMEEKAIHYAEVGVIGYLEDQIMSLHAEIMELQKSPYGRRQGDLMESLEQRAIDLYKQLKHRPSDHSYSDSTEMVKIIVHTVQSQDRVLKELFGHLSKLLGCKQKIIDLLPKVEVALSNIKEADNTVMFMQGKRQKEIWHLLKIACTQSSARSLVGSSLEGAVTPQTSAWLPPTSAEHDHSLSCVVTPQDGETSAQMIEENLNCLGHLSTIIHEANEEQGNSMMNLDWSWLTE
The target in the next test is T3, TLK1 (Homo sapiens, UniProt Q9UKI8).
T3 sequence (Q9UKI8 1-766): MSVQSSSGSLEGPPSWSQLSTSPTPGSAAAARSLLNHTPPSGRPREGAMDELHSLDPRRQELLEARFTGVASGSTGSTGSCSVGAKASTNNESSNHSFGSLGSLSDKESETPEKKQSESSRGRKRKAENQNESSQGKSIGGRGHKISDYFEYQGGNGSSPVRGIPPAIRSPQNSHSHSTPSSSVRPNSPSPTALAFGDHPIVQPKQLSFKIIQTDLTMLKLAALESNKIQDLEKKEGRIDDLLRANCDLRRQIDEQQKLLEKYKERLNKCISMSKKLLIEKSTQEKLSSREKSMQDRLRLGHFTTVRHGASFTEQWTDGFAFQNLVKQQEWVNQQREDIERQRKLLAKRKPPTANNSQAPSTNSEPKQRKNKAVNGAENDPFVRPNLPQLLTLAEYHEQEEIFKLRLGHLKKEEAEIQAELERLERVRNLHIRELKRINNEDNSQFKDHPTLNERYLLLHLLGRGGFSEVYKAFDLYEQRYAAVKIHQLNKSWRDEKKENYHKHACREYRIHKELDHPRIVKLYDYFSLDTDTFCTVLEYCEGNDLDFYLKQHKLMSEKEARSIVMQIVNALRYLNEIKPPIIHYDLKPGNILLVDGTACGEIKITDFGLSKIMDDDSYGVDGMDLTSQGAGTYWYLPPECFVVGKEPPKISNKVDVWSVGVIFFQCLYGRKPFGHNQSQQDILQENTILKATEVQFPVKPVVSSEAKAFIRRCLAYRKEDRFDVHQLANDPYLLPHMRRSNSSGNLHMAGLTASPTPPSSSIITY
Nature of the test: KiNativ, OCI cells live cell. Particulars: 2 h. It is filed as cell-based.

A further test addresses p70S6Kb (Homo sapiens, UniProt Q9UBS0). Nature of the test: KiNativ, OCI cells live cell. The settings on record: 2 h. It is filed as cell-based.
In the next test the target is PIK3CG (Homo sapiens, UniProt P48736). Nature of the test: KiNativ, OCI cells live cell. The test is classed as cell-based. Particulars: 2 h, labeling site ATP, peptide […].
For the next test, the target named is PCTAIRE2 (Homo sapiens, UniProt Q00537). Nature of the test: KiNativ, OCI cells live cell. The settings on record: 2 h, labeling site Lys2, peptide […]. It is filed as cell-based.
Chain of PCTAIRE2 (Q00537 whole entry): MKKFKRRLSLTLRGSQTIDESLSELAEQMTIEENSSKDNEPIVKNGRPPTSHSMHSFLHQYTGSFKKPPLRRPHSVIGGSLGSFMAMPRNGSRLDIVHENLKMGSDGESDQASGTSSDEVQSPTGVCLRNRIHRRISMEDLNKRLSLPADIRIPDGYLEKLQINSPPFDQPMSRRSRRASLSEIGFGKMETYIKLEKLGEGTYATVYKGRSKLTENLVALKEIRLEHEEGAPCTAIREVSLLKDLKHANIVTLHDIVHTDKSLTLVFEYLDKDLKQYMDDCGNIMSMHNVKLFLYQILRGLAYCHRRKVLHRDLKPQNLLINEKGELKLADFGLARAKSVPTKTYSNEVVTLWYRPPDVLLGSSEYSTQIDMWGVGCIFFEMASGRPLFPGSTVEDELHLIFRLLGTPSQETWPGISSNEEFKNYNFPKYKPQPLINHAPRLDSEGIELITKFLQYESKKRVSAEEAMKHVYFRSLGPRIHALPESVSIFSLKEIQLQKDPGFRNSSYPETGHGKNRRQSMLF
A further test addresses SGK3 (Homo sapiens, UniProt Q96BR1). The test is described as follows: KiNativ, OCI cells live cell. The test is classed as cell-based. The settings on record: 2 h, labeling site Lys1, peptide […].
In a further test the target is p38b (Homo sapiens, UniProt Q15759). Nature of the test: KiNativ, OCI cells live cell. It is filed as cell-based. The settings on record: 2 h, labeling site Other, peptide […].
Chain of p38b (Q15759 whole entry): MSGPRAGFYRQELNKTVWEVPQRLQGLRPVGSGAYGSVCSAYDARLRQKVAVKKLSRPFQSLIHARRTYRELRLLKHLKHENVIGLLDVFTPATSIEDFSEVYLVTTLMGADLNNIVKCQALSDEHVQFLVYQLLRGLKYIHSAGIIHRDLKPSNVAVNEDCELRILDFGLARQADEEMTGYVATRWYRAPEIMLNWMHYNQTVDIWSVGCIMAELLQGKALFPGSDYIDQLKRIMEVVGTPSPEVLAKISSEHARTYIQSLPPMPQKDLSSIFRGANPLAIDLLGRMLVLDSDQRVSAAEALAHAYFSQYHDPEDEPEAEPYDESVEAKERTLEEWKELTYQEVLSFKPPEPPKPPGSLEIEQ
Test [1] deals with native kinases in MOLM13 cells. Nature of the test: KiNativ in situ kinase profiling, MOLM13 cells. It is filed as cell-based, human. Particulars: 100 nM, compared with DMSO. Here is the method:
as §1

Another test has as its target T4, JAK1 domain1 (Homo sapiens, UniProt P23458).
T4 construct: JAK1 domain1
The test is described as follows: KiNativ, OCI cells live cell. The test is classed as cell-based. Particulars: labeling site Activation Loop, peptide QLASALSYLEDKDLVHGNVCTKNLLLAR

The mark [2] stands for this setting: Lys1, read-out: Inhibition vs DMSO.

Chain of p70S6Kb (Q9UBS0 whole entry): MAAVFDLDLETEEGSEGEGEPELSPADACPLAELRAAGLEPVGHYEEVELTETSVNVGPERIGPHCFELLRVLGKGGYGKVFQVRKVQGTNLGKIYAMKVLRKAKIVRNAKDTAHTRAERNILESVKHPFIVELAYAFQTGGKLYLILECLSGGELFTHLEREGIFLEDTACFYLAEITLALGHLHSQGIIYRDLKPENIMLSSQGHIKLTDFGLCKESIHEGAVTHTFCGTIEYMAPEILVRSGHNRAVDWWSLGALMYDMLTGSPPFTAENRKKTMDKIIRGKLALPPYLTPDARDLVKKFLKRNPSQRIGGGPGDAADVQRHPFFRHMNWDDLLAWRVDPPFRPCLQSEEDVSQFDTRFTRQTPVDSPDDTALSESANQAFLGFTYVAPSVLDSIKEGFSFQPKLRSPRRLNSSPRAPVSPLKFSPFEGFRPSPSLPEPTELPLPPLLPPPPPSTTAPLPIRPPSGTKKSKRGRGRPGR
T4 sequence (P23458 whole entry, the tested form may be a part): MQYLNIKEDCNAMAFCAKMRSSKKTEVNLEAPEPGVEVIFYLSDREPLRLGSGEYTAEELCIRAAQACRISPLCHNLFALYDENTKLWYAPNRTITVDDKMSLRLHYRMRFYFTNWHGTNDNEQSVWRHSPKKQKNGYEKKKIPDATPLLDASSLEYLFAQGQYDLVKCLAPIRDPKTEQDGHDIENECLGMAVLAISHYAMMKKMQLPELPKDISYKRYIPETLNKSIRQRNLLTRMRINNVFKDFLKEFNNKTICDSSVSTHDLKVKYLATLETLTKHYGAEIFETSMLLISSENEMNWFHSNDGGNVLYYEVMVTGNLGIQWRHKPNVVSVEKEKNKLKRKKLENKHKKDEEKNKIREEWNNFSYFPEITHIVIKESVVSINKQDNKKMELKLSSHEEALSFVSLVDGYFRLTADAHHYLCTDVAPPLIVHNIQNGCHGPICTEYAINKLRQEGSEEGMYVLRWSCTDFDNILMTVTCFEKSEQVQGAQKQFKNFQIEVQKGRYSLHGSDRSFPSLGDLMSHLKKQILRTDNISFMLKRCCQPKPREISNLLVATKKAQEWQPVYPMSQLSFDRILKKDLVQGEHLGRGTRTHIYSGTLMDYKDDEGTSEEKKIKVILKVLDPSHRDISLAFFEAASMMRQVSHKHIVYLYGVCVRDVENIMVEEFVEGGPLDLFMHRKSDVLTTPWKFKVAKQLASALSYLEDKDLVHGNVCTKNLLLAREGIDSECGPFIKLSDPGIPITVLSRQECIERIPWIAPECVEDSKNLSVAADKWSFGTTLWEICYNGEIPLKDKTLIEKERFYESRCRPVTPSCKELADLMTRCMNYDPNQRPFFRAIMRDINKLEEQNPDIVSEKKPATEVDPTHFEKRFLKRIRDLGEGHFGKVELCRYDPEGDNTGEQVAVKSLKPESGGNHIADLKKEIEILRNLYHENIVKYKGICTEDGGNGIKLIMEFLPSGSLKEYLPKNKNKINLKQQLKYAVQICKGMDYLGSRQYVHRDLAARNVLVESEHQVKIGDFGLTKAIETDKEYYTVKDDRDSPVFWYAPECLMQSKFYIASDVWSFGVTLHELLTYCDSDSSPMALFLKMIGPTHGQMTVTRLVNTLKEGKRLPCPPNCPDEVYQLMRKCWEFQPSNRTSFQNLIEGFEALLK
Chain of CDK10 (Q15131 whole entry): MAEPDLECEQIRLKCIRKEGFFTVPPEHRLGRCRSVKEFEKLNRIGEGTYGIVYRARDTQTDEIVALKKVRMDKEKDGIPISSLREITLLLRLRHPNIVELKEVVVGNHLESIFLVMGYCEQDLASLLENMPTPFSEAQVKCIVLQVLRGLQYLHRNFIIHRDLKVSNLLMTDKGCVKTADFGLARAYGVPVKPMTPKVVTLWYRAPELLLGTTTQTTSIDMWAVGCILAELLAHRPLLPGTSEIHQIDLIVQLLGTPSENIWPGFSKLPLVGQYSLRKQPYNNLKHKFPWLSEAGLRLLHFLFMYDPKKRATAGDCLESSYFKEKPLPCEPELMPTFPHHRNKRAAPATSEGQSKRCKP

A word on the inhibition: it is the relative decrease from the control value, in per cent. As a reminder, the Inhibition is the change of the read-out against control, counted positive when it falls. A higher Inhibition goes with strong suppression. With `CN1CCN(Cc2ccc(Nc3ncc(Cl)c(Nc4ccccc4S(=O)(=O)N(C)C)n3)cc2)CC1` [TP-0903], the inhibition at 0.1 µM was 33.7% on CDK10; -11.3% at GSK3B; 82.3% at TBK1; 6.4% on ILK (setting [2]); -1.3% at ILK (Protein Kinase Domain, read-out: Inhibition vs DMSO); 58.2% at AurA (setting [2]). The inhibition at 0.1 µM on AurA (Lys2, read-out: Inhibition vs DMSO) is 59.4%; on MAP2K5, -1.6%; at IKKa, 2.9%; on TLK1 (labeling site Lys1, peptide YAAVKIHQLNK) it was -15.2%; against TLK1 (labeling site Lys2, peptide YLNEIKPPIIHYDLKPGNILLVDGTACGEIK) it was -2.5%; on p70S6Kb (labeling site Lys1, peptide IYAMKVLR), -2.8%. In addition, the inhibition at 0.1 µM against p70S6Kb (labeling site Lys2, peptide DLKPENIMLSSQGHIK) was -18.3%; against PIK3CG it was 5.5%; against PCTAIRE2, 87.8%; at SGK3 it was -12.3%; at p38b, -9.9%. Moreover, the “Inhibition of AURKA/B/C, CDK6/7, BTK, and JAK1” value in test [1] is listed as “moderate to strong inhibition”. The molecule further displayed an Inhibition at JAK1 domain1 of 87.3%.

Values taken from paper PMC7714403 (JCI Insight, 2020).
